Measured values: US4721775A, “Effective peptides related to the luteinizing hormone releasing hormone from L-amino acids” (Board of Regents, The University of Texas System, priority 1985, dated 1988)
“And” between values parts separate entries of the source, which are not always exact repeats. Equal values may be shown once. “Also recorded” adds a separate entry of the source. Non-standard residues stand in square brackets, D forms with d. Residues, ends and D or L forms follow the SMILES beside them. pGlu = O=C1CC[C@@H](C(=O)O)N1

Legend:
release of LH = test: Release of LH in rats after sc injection; type: in vivo; conditions: for release of LH compared with LHRH: sc injection, dose and time as stated in the source
Source text: (§1) The data on the release of LH and FSH in rats by modifications of LHRH with one structural change are in Table II.
(§2) Exclusive of the salmon-LHRH, only one of the six decapeptides with two structural changes had significant activity.

release of FSH [1] = test: Release of FSH in rats after sc injection; type: in vivo
Source text: as §1, §2

[2] = test system: rat anterior pituitary cells in primary culture; conditions: in vitro, rat pituitary cells; Sherwood et al. (a), Miyamoto et al. (b); cited from earlier work
rat pituitary cells = conditions: in vitro, rat pituitary cells; Miyamoto et al. (b); cited from earlier work
release of FSH [3] = conditions: comparison with purified hypothalamic fractions; cited from earlier work
[4] = relative to LHRH; cited from earlier work
release of FSH [5] = test: Release of FSH in rats after sc injection; type: in vivo; conditions: dose and time as stated in the source
[6] = relative to LHRH; cited from earlier work; remark: listed apart in the source
[7] = target: T1, receptor identified with LHRH (Rattus norvegicus, UniProt P30969); test: Radio receptor assay (RRA) with 125I-D-Lys6-LHRH as ligand; type: binding; conditions: relative to LHRH
T1 construct: in tissue there is very likely a different receptor; from tissue
T1 sequence (P30969 1-327): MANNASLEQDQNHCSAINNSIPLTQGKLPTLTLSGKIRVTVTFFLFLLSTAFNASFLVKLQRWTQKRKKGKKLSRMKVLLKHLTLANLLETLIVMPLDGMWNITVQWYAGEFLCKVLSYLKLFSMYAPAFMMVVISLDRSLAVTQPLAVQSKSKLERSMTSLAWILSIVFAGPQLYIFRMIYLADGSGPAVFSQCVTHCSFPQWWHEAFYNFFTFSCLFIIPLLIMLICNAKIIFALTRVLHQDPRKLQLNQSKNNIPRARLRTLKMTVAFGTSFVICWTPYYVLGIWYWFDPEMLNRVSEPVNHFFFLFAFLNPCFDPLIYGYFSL
Source text: Data are included in Table II, III, IV and V from radio receptor assays as described by Heber et al. (Am. J. Physiol. […]: E227-E230 (1978)).
For the radio receptor assay, labelled ^125 I-D-Lys^6 -LHRH, was utilized as the ligand. The results are expressed as the relative inhibitory binder of the analog to LHRH at ID50 values.

[8] = 15 min. after sc injection, 50 ng, LHRH = 100
[9] = 15 min. after sc injection, 100 ng, LHRH = 100
[10] = 15 min. after sc injection, 100 ng, experiment marked *
[11] = 15 min. after sc injection, 100 ng, experiment marked *, LHRH* = 100
[12] = 15 min. after sc injection, 1000 ng, LHRH = 100
[13] = 15 min. after sc injection, 1000 ng, experiment marked *
[14] = 30 min. after sc injection, 50 ng, LHRH = 100
[15] = 30 min. after sc injection, 100 ng, LHRH = 100
[16] = 30 min. after sc injection, 1000 ng, LHRH = 100
[17] = 60 min. after sc injection, 300 ng, LHRH = 100
[18] = 60 min. after sc injection, 3000 ng, LHRH = 100
[19] = release 15 min. after sc injection, dosage of peptide 50 ng
[20] = release 15 min. after sc injection, dosage of peptide 100 ng
[21] = release 15 min. after sc injection, dosage of peptide 1000 ng
[22] = release 30 min. after sc injection, dosage of peptide 50 ng
[23] = release 30 min. after sc injection, dosage of peptide 100 ng
[24] = release 60 min. after sc injection, dosage of peptide 300 ng
[25] = release 60 min. after sc injection, dosage of peptide 3000 ng

Which results are given for `CC(C)C[C@H](NC(=O)CNC(=O)[C@H](Cc1ccc(O)cc1)NC(=O)[C@H](CO)NC(=O)[C@H](Cc1c[nH]c2ccccc12)NC(=O)[C@H](Cc1c[nH]cn1)NC(=O)[C@@H]1CCC(=O)N1)C(=O)N[C@@H](CCCNC(=N)N)C(=O)N1CCC[C@H]1C(=O)NCC(N)=O` [LHRH, pGlu--His--Trp--Ser--Tyr--Gly--Leu--Arg--Pro--Gly--NH2, reference compound]?
LH % change (release of LH; [8]): 100%; LH % change (release of LH; [9]): 100%; LH (release of LH; [10]): 21 ng/mL; LH % change (release of LH; [11]): 100%; LH % change (release of LH; [12]): 100%; LH (release of LH; [13]): 39 ng/mL; LH % change (release of LH; 15 min. after sc injection, 1000 ng, experiment marked *, LHRH* = 100): 100%; LH % change (release of LH; [14]): 100%; LH % change (release of LH; [15]): 100%; LH % change (release of LH; [16]): 100%; LH % change (release of LH; [17]): 100%; LH % change (release of LH; [18]): 100%; LH (release of LH; [19]): 16 ng/mL; LH (release of LH; [20]): 24 ng/mL; LH (release of LH; [21]): 57 ng/mL; LH (release of LH; [22]): 18 ng/mL; LH (release of LH; [23]): 11 ng/mL; LH (release of LH; [24]): 11 ng/mL and 17 ng/mL; LH (release of LH; [25]): 82 ng/mL and 113 ng/mL; FSH % change (release of FSH [1]; [8]): 100%; FSH % change (release of FSH [1]; [9]): 100%; FSH (release of FSH [1]; [10]): 455 ng/mL; FSH % change (release of FSH [1]; [11]): 100%; FSH % change (release of FSH [1]; [12]): 100%; FSH (release of FSH [1]; [13]): 576 ng/mL; FSH % change (release of FSH [1]; [14]): 100%; FSH % change (release of FSH [1]; [15]): 100%; FSH % change (release of FSH [1]; [16]): 100%; FSH % change (release of FSH [1]; [17]): 100%; FSH % change (release of FSH [1]; [18]): 100%; FSH (release of FSH [1]; [19]): 550 ng/mL; FSH (release of FSH [1]; [20]): 465 ng/mL; FSH (release of FSH [1]; [21]): 483 ng/mL; FSH (release of FSH [1]; [22]): 515 ng/mL; FSH (release of FSH [1]; [23]): 494 ng/mL and 434 ng/mL; FSH (release of FSH [1]; release 30 min. after sc injection, dosage of peptide 1000 ng): 691 ng/mL and 1010 ng/mL; FSH (release of FSH [1]; [24]): 596 ng/mL and 554 ng/mL; FSH (release of FSH [1]; [25]): 1173 ng/mL and 1501 ng/mL; activity (potency) to release LH relative to P/O LHRH [2]: 100%; activity to release FSH relative to P/O LHRH (rat pituitary cells): 100%; FSH released (release of FSH [3]): ca. 18,000 ng/ml

For “[Ala^9 ]-LHRH (QHWSYGLRAG; Gonadoliberin-1; UniProt P01148 24-33, looked up, variant P9A) [literature agonist analog of LHRH]”, which “agonist activity in vitro, as active as LHRH” value [4] is on record?
The value was 65%.

With `N=C(N)NCCC[C@H](NC(=O)[C@H](Cc1c[nH]c2ccccc12)NC(=O)CNC(=O)[C@H](Cc1ccc(O)cc1)NC(=O)[C@H](CO)NC(=O)[C@H](Cc1c[nH]c2ccccc12)NC(=O)[C@H](Cc1c[nH]cn1)NC(=O)[C@@H]1CCC(=O)N1)C(=O)N1CCC[C@H]1C(=O)NCC(N)=O` [[Trp^7]--LHRH, p-Glu His Trp Ser Tyr Gly Trp Arg Pro Gly-NH2] as the molecule, how does the LH (release of LH; [24]) read?
The LH was 14.5 ng/mL.

And the LH (release of LH; [25])?
The LH was 115 ± 19 ng/mL and 115 ng/mL.

And the “release of LH compared with LHRH” value (release of LH)?
Its value is “as active as LHRH at two dose levels; also recorded: equivalent to LHRH in the release of both LH and FSH”.

What about the FSH (release of FSH [1]; [24]) of the same molecule?
The FSH was 543 ng/mL.

What about the FSH (release of FSH [1]; [25]) of the same molecule?
Its FSH is 1259 ng/mL.

And the “release of FSH compared with LHRH” value (release of FSH [5])?
The value was “as active as LHRH; also recorded: equivalent to LHRH in the release of both LH and FSH”.

What about the “agonist activity in vivo” value [6] of the same molecule?
Its value is 80%.

Which results are given for `NC(=O)CC[C@H](NC(=O)[C@H](Cc1c[nH]c2ccccc12)NC(=O)CNC(=O)[C@H](Cc1c[nH]cn1)NC(=O)[C@H](CO)NC(=O)[C@H](Cc1c[nH]c2ccccc12)NC(=O)[C@H](Cc1c[nH]cn1)NC(=O)[C@@H]1CCC(=O)N1)C(=O)N1CCC[C@H]1C(=O)NCC(N)=O` [[His^5 Trp^7 Gln^8]--LHRH, p-Glu His Trp Ser His Gly Trp Gln Pro Gly-NH2] ([pGlu]HWSHGWQPG-NH2)?
LH % change (release of LH; [17]): 46%; LH % change (release of LH; [18]): 65%; LH (release of LH; [20]): 17 ng/mL; LH (release of LH; [21]): 66 ng/mL; LH (release of LH; [24]): 5 ng/mL; LH (release of LH; [25]): 53 ng/mL; release of LH compared with LHRH (release of LH): released less LH; also recorded: released equivalent levels of LH and FSH when monitored 15 minutes after injection; also recorded: as effective at 100 ng as LHRH; also recorded: about two times as effective as [His^5, Trp^7 Leu^8 ]-LHRH; FSH % change (release of FSH [1]; [17]): 68% and 67.8%; FSH (release of FSH [1]; [20]): 403 ng/mL; FSH (release of FSH [1]; [21]): 486 ng/mL; FSH (release of FSH [1]; [24]): 404 ng/mL; FSH (release of FSH [1]; [25]): 1161 ng/mL; level at which effectiveness in the radioreceptor assay for LHRH is achieved, times that of LHRH [7]: 46 times; release of FSH compared with LHRH (release of FSH [5]): as much FSH at the higher dosage of 3000 ng as LHRH; also recorded: released equivalent levels of LH and FSH when monitored 15 minutes after injection; also recorded: released as much FSH as LHRH

With [N-MeLeu^7 ]-LHRH as the molecule, how does the “agonist activity in vitro, as active as LHRH” value [4] read?
Its value is 100%.

With “[Phe^5 ]-LHRH (QHWSFGLRPG; Gonadoliberin-1; UniProt P01148 24-33, looked up, variant Y5F) [literature agonist analog of LHRH, reference compound]” as the molecule, how does the “agonist activity in vivo” value [6] read?
The value was 64%.
